# In patent publication US20100209486A1, “Method of enhancing CoenzymeQ10 levels in mammals” (priority 2009, published 2010):
# “And” between values parts separate entries of the source, which are not always exact repeats. Identical values can stand only once. Marks after values point to notes of the source that are not given here.
# Columns and labels:
# Type in all cases: in vivo
# [1] = system: isolated guinea pig hearts; experiment: Reperfusion-induced ventricular fibrillation in isolated ischemic/reperfused hearts from orally treated guinea pigs; details: 5 mg/kg/day oral for 4 weeks; 30 min global ischemia then reperfusion; drug-free control 92%
# Protocol: FIG. 1. The incidence of reperfusion-induced ventricular fibrillation (VF). Guinea pigs were orally treated with a daily dose of 5 mg/kg of CoQ10 or CoQ9 or vehicle control for 4 weeks, and then hearts were excised, and isolated for perfusion via Langendorff mode and subjected to 30 min of global ischemia followed by 120 min of reperfusion. N=12 in each group, *p<0.05 compared to the drug-free control (C) group.
# (§1) Experimental studies were designed to determine if CoQ9 could protect guinea pig hearts from ischemia reperfusion injury. Myocardial ischemia reperfusion injury model is the most widely accepted experimental method for assessment of parameters related to cardio-protection. […] Cardioprotection was assessed by evaluating left ventricular function, ventricular arrhythmias, myocardial infarct size and cardiomyocyte apoptosis.
# Protective effect of CoQ9 and CoQ10 against from Ventricular Fibrillation (VF): Healthy Male Hartley guinea pigs of about 350-400 gm body weight were randomly divided into three groups, Control, CoQ9 and CoQ10. […] Epicardial ECG was recorded through out the experiment, by attaching two silver electrodes directly to the myocardium and data collected using a data acquisition system (ADInstruments, Powerlab, Castle Hill, Australia). ECGs were analyzed to determine ventricular fibrillation (VF) and ventricular tachycardia (VT). […]
# [2] = system: isolated guinea pig hearts; experiment: Cardiomyocyte apoptosis (TUNEL) in isolated ischemic/reperfused guinea pig hearts; details: 5 mg/kg/day oral for 4 weeks; end of reperfusion; percent of total myocyte population; control 21±2%
# Protocol: FIG. 2/B. Effects of CoQ10 and CoQ9 on cardiomyocyte apoptosis in isolated guinea pig hearts subjected to 30 min of ischemia followed by 120 min of reperfusion. The bars represent mean±SD of cardiomyocyte apoptosis for control, CoQ10 and CoQ9 supplemented groups. *p<0.05 compared to the untreated age-matched ischemic/reperfused drug-free control (C) value.
# as §1
# CoQ9 and CoQ10 treatment reduces apoptosis of cardiomyocytes: Animal preparation, drug pretreatment and isolated working heart preparation were done as described in example 1. […] The fluorescence staining was viewed with a confocal laser microscope. The number of apoptotic cells was counted and expressed as a percent of total myocyte population. […] Apoptosis of cardiomyocytes determined by Tunel method in control group was about 21±2% at the end of reperfusion.
# [3] = system: isolated guinea pig hearts; experiment: Recovery of post-ischemic cardiac function (HR, CF, AF, LVDP) in isolated working guinea pig hearts; details: 5 mg/kg/day oral for 4 weeks; for aortic flow (AF), After 60 min of RE / coronary flow (CF), After 60 min of RE / heart rate (HR), After 60 min of RE / left ventricular developed pressure (LVDP), After 60 min of RE / aortic flow (AF), After 120 min of RE / heart rate (HR), After 120 min of RE / coronary flow (CF), After 120 min of RE / left ventricular developed pressure (LVDP), After 120 min of RE: 30 min ischemia; for aortic flow (AF), After 60 min of RE / coronary flow (CF), After 60 min of RE / heart rate (HR), After 60 min of RE / left ventricular developed pressure (LVDP), After 60 min of RE: 60 min reperfusion; for aortic flow (AF), After 120 min of RE / heart rate (HR), After 120 min of RE / coronary flow (CF), After 120 min of RE / left ventricular developed pressure (LVDP), After 120 min of RE: 120 min reperfusion; for aortic flow (AF), Before ISA / coronary flow (CF), Before ISA / heart rate (HR), Before ISA / left ventricular developed pressure (LVDP), Before ISA: isolated heart before ischemia
# Protocol: Experimental studies were designed to determine if CoQ9 could protect guinea pig hearts from ischemia reperfusion injury. Myocardial ischemia reperfusion injury model is the most widely accepted experimental method for assessment of parameters related to cardio-protection. Guinea pigs were randomly divided into three groups: Group II and Group III were supplemented with 5 mg/kg bodyweight of CoQ9 and CoQ10, respectively, for 4 weeks while Group I served as control (C). After 4 weeks, the guinea pigs were sacrificed and the isolated hearts were perfused via working mode. The isolated hearts were subjected to ischemia for 30 min followed by 2 hours of reperfusion. Cardioprotection was assessed by evaluating left ventricular function, ventricular arrhythmias, myocardial infarct size and cardiomyocyte apoptosis.
# Similar types of post-ischemic recovery of HR, CF, and LVDP were registered (Table 1) in isolated hearts obtained from guinea pigs treated with 5 mg/kg/day of CoQ10 or CoQ9 for 4 weeks. The improvement in post-ischemic cardiac function (HR, CF, AF, and LVDP) was more pronounced in the CoQ9 treated group than in the CoQ10 treated group.
# Protective effect of CoQ9 and CoQ10 against from Ventricular Fibrillation (VF): Healthy Male Hartley guinea pigs of about 350-400 gm body weight were randomly divided into three groups, Control, CoQ9 and CoQ10. The guinea pigs were given orally 5 mg/kg body weight [in 0.5 ml water] of vehicle only, CoQ9 or CoQ10 respectively by gavage once a day. […] Treatment was continued for 30 days, the animals had free access to food and water. After 30 days, all animals were anesthetized, heparinized and sacrificed. The hearts excised, and isolated for perfusion via Langendorff mode for 5 min of washout period of the Langendorff heart perfusion, the pulmonary vein was cannulated, and the heart was switched to the “working” mode via perfusion of the left atria (at a filling pressure of 17 cm of the buffer, 1.7 kPa) as it was described in detail elsewhere. Global ischemia was imposed by clamping the atrial and aortic cannulas. Epicardial ECG was recorded through out the experiment, by attaching two silver electrodes directly to the myocardium and data collected using a data acquisition system (ADInstruments, Powerlab, Castle Hill, Australia). ECGs were analyzed to determine ventricular fibrillation (VF) and ventricular tachycardia (VT). The first 10 min of reperfusion was done in Langendorf (‘nonworking’) mode in order to avoid the development of reperfusion-induced VT and VF during the ‘working’ heart reperfusion. After the initial 2 min of VT or/and VF (sustained VF) in Langendorff reperfusion, hearts were defibrillated (if it was necessary), reperfused for an additional 8 min in Langendorff mode, and switched to ‘working heart’ reperfusion, and myocardial function was recorded. The heart was considered to be in VF if an irregular undulating baseline was apparent on the ECG. The data of VT, VF and sinus rhythm show their durations (in seconds) within the first 120 s of nonworking Langendorff reperfusion. The incidences of reperfusion-induced ventricular fibrillation (VF) for CoQ9 and CoQ10 are depicted in FIG. 1. […] Incidence of VF was reduced from 92% (control group) to 25% (*p<0.05) and 8% (*p<0.05) with 5 mg/kg/day of CoQ10 and CoQ9, respectively.
# CoQ9 and CoQ10 treatment improves post-ischemic cardiac function (HR, CF, AF, and LVDP): Animal preparation, drug pretreatment and isolated working heart preparation were done as described in example 1. The isolated hearts obtained from group II and Group III guinea pigs treated with 5 mg/kg/day of […], for 4 weeks were subjected to 30 min ischemia followed by 120 min of reperfusion. […]
Compound,incidence of reperfusion-induced ventricular fibrillation (VF) [1] [%],apoptotic cardiomyocytes (Tunel method) [2] [%],"aortic flow (AF), After 60 min of RE [3]","coronary flow (CF), After 60 min of RE [3]","heart rate (HR), After 60 min of RE [3]","left ventricular developed pressure (LVDP), After 60 min of RE [3]","aortic flow (AF), After 120 min of RE [3]","heart rate (HR), After 120 min of RE [3] [beats/min]","aortic flow (AF), Before ISA [3] [mL/min]","heart rate (HR), Before ISA [3] [beats/min]","left ventricular developed pressure (LVDP), Before ISA [3] [mm Hg]",other results
"COC1=C(OC)C(=O)C(C/C=C(\C)CC/C=C(\C)CC/C=C(\C)CC/C=C(\C)CC/C=C(\C)CC/C=C(\C)CC/C=C(\C)CC/C=C(\C)CCC=C(C)C)=C(C)C1=O [CoQ9, Coenzyme Q9]",8,7±1.5,27 ± 1* ml/min,22 ± 2* ml/min,240 ± 4* beats/min,80 ± 2* mm Hg,26.0 ± 1.0 mL/min,233±4,35 ± 2,248 ± 5,106 ± 4,"aortic flow (AF), After 120 min of RE ([3]; listed as CoQ 9): 26 ± 1 mL/min; coronary flow (CF), After 120 min of RE ([3]; listed as CoQ 9): 25 ± 2 mL/min; left ventricular developed pressure (LVDP), After 120 min of RE ([3]; listed as CoQ 9): 75±2 mm Hg; aortic flow (AF), After 120 min of RE ([3]; listed as Q9): 26 ± 1* ml/min; coronary flow (CF), After 120 min of RE ([3]; listed as Q9): 25 ± 2* ml/min; heart rate (HR), After 120 min of RE ([3]; listed as Q9): 233 ± 4* beats/min; left ventricular developed pressure (LVDP), After 120 min of RE ([3]; listed as Q9): 75 ± 2* mm Hg; coronary flow (CF), Before ISA [3]: 23 ± 2 mL/min; coronary flow (CF), Before ISA ([3]; listed as Q9): 23 ± 2 mL/min"
"COC1=C(OC)C(=O)C(C/C=C(\C)CC/C=C(\C)CC/C=C(\C)CC/C=C(\C)CC/C=C(\C)CC/C=C(\C)CC/C=C(\C)CC/C=C(\C)CC/C=C(\C)CCC=C(C)C)=C(C)C1=O [CoQ10, Coenzyme Q10, reference compound]",25,6±1,20 ± 2* ml/min,20 ± 1* ml/min,228 ± 3* beats/min,71 ± 3* mm Hg,18.0 ± 2.0 mL/min and 18 ± 2 mL/min,217±3,34 ± 2,261 ± 6,100 ± 5,"coronary flow (CF), After 120 min of RE [3]: 19 ± 1 mL/min; left ventricular developed pressure (LVDP), After 120 min of RE [3]: 64±3 mm Hg; aortic flow (AF), After 120 min of RE ([3]; listed as Q10): 18 ± 2* ml/min; coronary flow (CF), After 120 min of RE ([3]; listed as Q10): 19 ± 1* ml/min; heart rate (HR), After 120 min of RE ([3]; listed as Q10): 217 ± 3* beats/min; left ventricular developed pressure (LVDP), After 120 min of RE ([3]; listed as Q10): 64 ± 3* mm Hg; coronary flow (CF), Before ISA ([3]; listed as CoQ 10): 25 ± 2 mL/min; coronary flow (CF), Before ISA ([3]; listed as Q10): 25 ± 2 mL/min"
